Patent US20120045816A1, “Novel Glycosylated Polypeptides” (Sialix, Inc., priority 2008, published 2012)

Assays:
[1] = tested on: affinity-purified chicken anti-Neu5Gc IgY; assay: ELISA detection of Neu5Gc on Cetuximab and Panitumumab; format: binding; conditions: 1 μg antibody per well; FIG. 1A
From the text: Sialidase Treatment of Cet and Pan. […] Samples were used for ELISA or Western Blots.
ELISA samples were studied at least in triplicate. […] Samples were studied in triplicate.
ELISA We first did ELISA assays using an affinity-purified polyclonal chicken anti-Neu5Gc antibody preparation that is highly mono-specific for Neu5Gc^5, alongside a non-reactive control IgY.

[2] = Sialic acid quantity (DMB-HPLC); format: physicochemical
Protocol: DMB-HPLC. Samples were subjected to base treatment with 0.1 M NaOH (final) at 37° C. for 30 min to remove O-acetyl esters, and the sialic acids were released by acid hydrolysis with 2 M acetic acid (final), at 80° C. for 3 hours. Samples were passed through Microcon-10 columns (20 min, 10000×g; Millipore), derivatized with 1,2-diamino-4,5-methyl dioxybenzene (DMB), and analyzed by HPLC as described^9 in Hara et al., 1986, J. Chromatography 377:111-119. Measured values of non acid-treated controls (free sialic acids) were subtracted.
(§1) Sialic Acid Quantity. The levels of Sialic acids on the therapeutic antibodies (TAbs) Cet and Pan were determined. […] Cet and Pan (1 μg each) were separated by SDS-PAGE and Coomassie stained or blotted (see FIG. 1B). […] The absorbance was measured at 405 nm.

[3] = tested on: anti-Neu5Gc antibodies in human serum; assay: CIC-C1q binding assay, immune complex formation in whole human serum; conditions: 40 μg antibody in 100 μl serum, FIG. 1F
Protocol: CIC-C1q Binding Assay. […] 1:50 dilutions of the mix were applied to human C1 q coated ELISA wells, and incubated for 1 h at 25° C. […] The absorbance was measured at 405 nm. Samples were studied in triplicate.
as §1

[4] = tested on: anti-Neu5Gc antibodies from whole human sera; assay: Direct binding of anti-Neu5Gc antibodies from whole human sera to Fab fragments (ELISA); conditions: serum S34; Fab fragments 1 μg/well; FIG. 2C
Protocol: Direct binding of anti-Neu5Gc antibodies from whole human sera to the glycosylated polypeptides, Cet and Pan, was evaluated. […] Fab fragments (1 μg/well) were used as target molecules in ELISA. Sialic acid specific binding was determined with sodium metaperiodate treatment. Wells were then blocked and incubated with human sera (S30 and S34 with low and high anti-Neu5Gc IgG titers, respectively, from Ref. 7).

Human 293T cells = assay: Reduction of Neu5Gc contamination in 293T human kidney cells by Neu5Ac chase; format: cell-based; conditions: 5 mM Neu5Ac chase after 5 mM Neu5Gc for 3 days; HPLC; FIG. 3A-B
Protocol: Reduction of Neu5Gc Contamination in Glycosylated Polypeptides in 293T Human Kidney Cells. 293T human kidney cells were grown in DME supplemented with 10% FCS. Cells were lifted from culture plate using 20 mM EDTA in PBS and allowed to grow to 50% confluence. Buffered 100 mM Neu5Gc was added to the culture in duplicate at a final 5 mM concentration, and the cells were grown in this supplemented media for 3 days. At the end of this Neu5Gc pulse, the cells were once again lifted using 20 mM EDTA in PBS, pelleted, washed once with PBS to remove any excess Neu5Gc and then suspended in 30 ml of growth medium. Five ml of this cell suspension was added to each of […]. The last aliquot of cell suspension, time “0”, was immediately harvested by pelleting the cells, washing once with PBS, followed by suspending the cells in 1 ml of PBS and transferring to a 1.5 ml microcentrifuge tube. The cells were re-pelleted and frozen until all time points were collected. […]
Free Neu5Ac in Human 293T Cell Culture Medium Reduces Neu5Gc Contamination. […] Cells were harvested as described above, and the Neu5Gc and Neu5Ac content of both the ethanol soluble (FIG. 3A) and ethanol precipitable proteins (FIG. 3B) was analyzed by HPLC. […]

CHO cells = assay: Reduction of Neu5Gc contamination in CHO cells by feeding Neu5Ac; format: cell-based, Chinese Hamster; conditions: 5 mM Neu5Ac in medium; DMB-HPLC and Western blot; FIG. 3C-E
Protocol: Reduction of Neu5Gc Contamination in Glycosylated polypeptides in CHO Cells. A similar approach was taken to CHO cells stably expressing a Siglec-Fc protein in the medium, except that the Neu5Gc pulse was omitted, and the secreted glycoproteins were captured on Protein-A Sepharose beads. The cells were also processed similarly, except that total cell membranes were pelleted by centrifugation. The Sias content of the secreted proteins and cell membranes was determined by acid hydrolysis, DMB derivatization and HPLC. The cell membranes were also studied for NueSGc content by Western-blotting with the chicken anti-Neu5Gc IgY, as described above.
Free Neu5Ac in Non-Human CHO Cell Culture Medium Reduces Neu5Gc Contamination. However, many recombinant glycosylated polypeptides are currently produced in non-human cells, e.g., Chinese Hamster Ovary (CHO) cell lines. Glycosylated polypeptide produced in CHO cells carry small amounts of Neu5Gc^19,5. […] The individually collected media was centrifuged to remove cell debris and adjusted to 5 mM Tris-HCl pH 8. The fusion protein was purified using Protein-A Sepharose. Sialic acid content was determined by DMB-HPLC analysis (FIG. 3C). The area under each peak was obtained and the percent of Neu5Gc in each sample was determined relative to Neu5Ac. Total cell membranes from the same CHO cells were prepared and used for DMB-HPLC analysis (FIG. 3D). […]

Compound | Bound Neu5Gc detected by chicken anti-Neu5Gc IgY (ELISA) [1] | Share of Neu5Gc in the Sias [2] [%] | Sias carried by the antibody [2] [mol/mol] | Immune complex formation, low titer human serum ([3]; serum S30) | Immune complex formation, human serum with high levels of anti-Neu5Gc antibodies ([3]; serum S34) | Mild periodate sensitive binding of serum IgG to Fab fragments, high anti-Neu5Gc titer serum [4] | Effect on Neu5Gc content of cells preloaded with Neu5Gc (Human 293T cells) | Effect on Neu5Gc of membrane glycoproteins and a secreted recombinant protein (CHO cells)
Panitumumab: fully human antibody against the EGF receptor produced in Chinese Hamster Ovary cells | not on Panitumumab | < 0.1 | 0.22 | no detectable immune complex formation | no detectable immune complex formation | not to those of Panitumumab |  | 
CC(=O)N[C@H]1[C@H]([C@H](O)[C@H](O)CO)OC(O)(C(=O)O)C[C@@H]1O (some centres unmarked) [Neu5Ac, N-acetylneuraminic acid] |  |  |  |  |  |  | more rapid disappearance of ethanol-precipitable (glycosidically-bound) Neu5Gc | reduces Neu5Gc in CHO cells
